One assay concerns Mouse CD4+ cells. The assay can be described thus: Th17 cell differentiation assay (IL-17 ELISA). Format: cell-based. To be noted: mean of multiple test results if tested more than once, read-out: pIC50 in the Th17 cell differentiation assay (converted). The procedure: Mouse CD4+ cells were purified using the CD4+ T Cell Isolation II Kit according to manufacturer's instructions (Miltenyi Biotec). 96 well plates were pre-coated with anti-mCD3 antibody. Un-coated wells were used as controls. CD4+ Cells were resuspended in RPMI 1640 complete medium and were added to the 96-well plates. Cytokine cocktail and the compound were then added to the wells. Antibodies and cytokines (all from R&D Systems) used in the assay were selected from the following: anti-mCD3; anti-mCD28; anti-mIFNγ; anti-mIL4; mIL-6; mIL-23; mIL-1β; hTGF-β1. The culture was incubated at 37° C. for 3 days and supernatants were collected for ELISA. The IL-17 ELISAs were performed according to manufacturer's instructions (R&D Systems). The results were analyzed using Prism software with non-linear regression to determine pIC50.
The Th17 differentiation culture described above was maintained for 5 days and cells were analyzed by IL-17 and IFN-γ intracellular staining according to manufacturer's instructions (BD Biosciences).

Another assay deals with T1, RORγ-LBD (Homo sapiens, UniProt P51449).
T1 construct: adding an appropriate amount of biotinylated RORγ-LBD and APC-labeled streptavidin
T1 sequence (P51449 269-508 limits assumed): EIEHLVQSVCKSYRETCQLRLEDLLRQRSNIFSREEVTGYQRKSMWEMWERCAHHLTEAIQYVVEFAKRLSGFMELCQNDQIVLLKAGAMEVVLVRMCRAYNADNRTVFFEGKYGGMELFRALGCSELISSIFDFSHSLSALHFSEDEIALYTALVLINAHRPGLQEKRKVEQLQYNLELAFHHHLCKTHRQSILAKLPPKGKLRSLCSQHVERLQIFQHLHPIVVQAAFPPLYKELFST
The assay can be described thus: Fluorescence Energy Transfer (FRET) assay. The format is biochemical. The settings on record: mean of multiple test results if tested more than once; read-out: pIC50 in the FRET assay (converted). How it is done: The assays were performed in an assay buffer consisting of 50 mM NaF, 50 mM 3-(N-morpholino)propanesulfonic acid, pH 7.5, 50 μM 3-[(3-cholamidopropyl)dimethylammonio]-propanesulfonate, 0.1 mg/mL bovine serum albumin, and 10 mM dithiothreitol in 384-well plates (Greiner 784076, Longwood, Fla.). The total volume was 10 μL/well. The europium-labeled SRC1 solution was prepared by adding an appropriate amount of biotinylated SRC and europium labeled streptavidin (PerkinElmer Life and Analytical Sciences, Waltham, Mass.) into assay buffer, with final concentrations of 27 and 3.3 nM, respectively. The allophycocyanin (APC)-labeled-LBD solution was prepared by adding an appropriate amount of biotinylated RORγ-LBD and APC-labeled streptavidin (CR130-100; PerkinElmer Life and Analytical Sciences) at a final concentration of 33 nM each. After 15 min of incubation at room temperature, a 20-fold excess of biotin was added to block the remaining free streptavidin. […] The plates were incubated for 1 h at room temperature and then read on ViewLux (PerkinElmer Life and Analytical Sciences) in LANCE mode configured for europeum-APC labels. Data were collected and analyzed by Activitybase.

With `Cc1ncc(C(=O)Nc2cc(Cl)cc(CN3CCN(C(=O)CC4CC4)[C@@H](C)C3)c2C)cc1F` [Example 80, (S)—N-(5-chloro-3-((4-(2-cyclopropylacetyl)-3-methylpiperazin-1-yl)methyl)-2-methylphenyl)-5-fluoro-6-methylnicotinamide], the IC50 in the assay with Mouse CD4+ cells is ~5.01 nM; on RORγ-LBD, ~50.1 nM.

These data come from US9902735B2, “Heteroaryl substituted compounds as RORγ inhibitors” (GlaxoSmithKline Intellectual Property Developement Limited, priority 2014, dated 2018).
